The numbers were not newly measured in US20050085446A1, “Fluoroquinolone formulations and methods of making and using the same” (priority 2003, published 2005), which cites them from elsewhere.

Read-outs that look alike come from different tables or passages of the source.

This data set concerns bacterial strains.

Take `O=C(O)c1cn(C2CC2)c2cc(N3CCNCC3)c(F)cc2c1=O` [ciprofloxacin, 1-cyclopropyl-6-fluoro-1,4-dihydro-4-oxo-7-(1-piperazinyl)-3-quinolinecarboxylic acid]: the MIC90 result (generally around) is reported as “around 0.5 μg/g”.
For the compound gentamicin, the MIC90 is recorded as 10 μg/gm.
